Patent publication US11332455B2, “α,β-unsaturated amide compound” (KYOWA KIRIN CO., LTD., priority 2015, dated 2022)

What was measured:
Assay in all cases: Cell growth inhibitory effect, cell counting kit 8, 6 days
Type in all cases: cell-based
[1] = test system: HuH28, a human liver cancer cell line; details: 144 h, HuH28 cells, 6 days incubation
Excerpt: (§1) Cell growth inhibitory effect on human mesothelioma, human liver cancer, human ovarian cancer, and […]
(§2) NCI-H226 cells, a human mesothelioma cell line (ATCC, CRL-5826), NCI-H322 cells, a human lung cancer cell line (the European Collection of Authenticated Cell Cultures, 95111734), OVTOKO cells, a human ovarian cancer cell line (JCRB cell bank, JCRB1048) and HuH28, a human liver cancer cell line (JCRB cell bank, JCRB0426) were each subcultured by keeping the cell density under 80% in a RPMI1640 culture medium with 10% fetal bovine serum (FBS). NCI-H226 cells, NCI-H322 cells and SSP-25 cells were each suspended in the RPM11640 culture medium mentioned above, and plated to a 96-well flat-bottom plate at 500 cells/well in each well, and incubated at 37° C. in an incubator with 5% CO2 for one day. After the incubation, the evaluation of cell growth inhibitory activity was started. OVTOKO cells were suspended in the RPMI1640 culture medium mentioned above, and plated to a 96-well flat-bottom plate at 250 cells/well in each well, and incubated it at 37° C. in an incubator with 5% CO2 for one day. After the incubation, the evaluation of the cell growth inhibitory activity was started. The next day, a test compound was serially diluted to 5 times of its final concentration in the RPM11640 culture medium mentioned above, and the diluted solution was added to each well. In this case, the final concentration of DMSO in each well was adjusted to 0.1%. After the test compound was added, cells were incubated at 37° C. in an incubator with 5% CO2 for 6 days. At the addition of the test compound and 6 days after the addition, the cell counting measurement was performed using a cell counting kit 8 (made by DOJINDO) according to a protocol equivalent to DOJINDO's recommendation. A reagent contained in the kit was added to each plate and color reaction was performed for 2 or 3 hours at 37° C. in an incubator with 5% CO2. After the reaction, an absorbance at wavelength of 450 nm was measured using a microplate reader. A growth inhibition rate was calculated according to the following formula, from which the concentration of a test compound at which cell growth was inhibited by 50% (GI50 value) was determined.

[2] = test system: NCI-H226 cells, a human mesothelioma cell line; details: 144 h, 6 days incubation
Excerpt: as §1, §2

[3] = test system: NCI-H322 cells, a human lung cancer cell line; details: 144 h, 6 days incubation
Excerpt: as §1, §2

[4] = group 100 nmol/L to 1 μmol/L (upper bound given in μmol/L)

| SMILES | GI50 [1] | GI50 ([2]; group less than 100 nmol/L) | GI50 [3] | GI50 [2, 4] |
| --- | --- | --- | --- | --- |
| C=CC(=O)NC1CCOc2c1ccc(Oc1ccc(C(F)(F)F)cc1)c2F (racemic) [Compound 31, N-[8-Fluoro-7-{4-(trifluoromethyl)phenoxy}chroman-4-yl]acrylamide] | < 3000 nM | < 100 nM | < 1000 nM | – |
| C=CC(=O)NC1CCOc2c1ccc(Oc1ccc(C(F)(F)F)cc1)c2OC (racemic) [Compound 33, N-[8-Methoxy-7-{4-(trifluoromethyl)phenoxy}chroman-4-yl]acrylamide] | < 3000 nM | < 100 nM | < 1000 nM | – |
| C=CC(=O)NC1COc2c(Oc3ccc(C(F)(F)F)cc3)cccc2C1=O (racemic) [Compound 40, N-[4-Oxo-8-{4-(tolyloromethyl)phenoxy}chroman-3-yl]acrylamide] | < 3000 nM | < 100 nM | < 1000 nM | – |
| C=CC(=O)NC1COc2c(cccc2Oc2ccc(C(F)(F)F)nc2)C1 (racemic) [Compound 51, N-(8-[{6-(Trifluoromethyl)pyridin-3-yl}oxy]chroman-3-yl)acrylamide] | – | < 100 nM | < 1000 nM | – |
| C=CC(=O)N[C@@H]1c2ccc(Oc3ccc(C(F)(F)F)cc3)cc2OC[C@@H]1F (relative stereo) [Compound 21, cis-N-[3-Fluoro-7-{4-(trifluoromethyl)phenoxy}chroman-4-yl]acrylamide] | – | < 100 nM | < 1000 nM | – |
| C=CC(=O)N[C@@H]1c2ccc(Oc3ccc(C(F)(F)F)cc3)cc2OC[C@H]1F (relative stereo) [Compound 22, trans-N-[3-Fluoro-7-{4-(trifluoromethyl)phenoxy}chroman-4-yl]acrylamide] | < 3000 nM | < 100 nM | < 1000 nM | – |
| C=CC(=O)N[C@H]1CC[C@@H](Oc2ccc(Cl)cc2)c2nc(Cl)ccc21 (relative stereo) [Compound 70, cis-N-{2-Chloro-8-(4-chlorophenoxy)-5,6,7,8-tetrahydroquinolin-5-yl}acrylamide] | – | < 100 nM | < 1000 nM | – |
| C=CC(=O)N[C@H]1CC[C@@H](Oc2ccc(Cl)cc2)c2nc(OC)ccc21 (relative stereo) [Compound 71, cis-N-{8-(4-Chlorophenoxy)-2-methoxy-5,6,7,8-tetrahydroquinolin-5-yl}acrylamide] | – | < 100 nM | < 1000 nM | – |
| C=CC(=O)N[C@H]1CC[C@@H](Oc2ccc(C(F)(F)F)cc2)c2nc(Cl)ccc21 (relative stereo) [Compound 76, cis-N-[2-Chloro-8-{4-(trifluoromethyl)phenoxy}-5,6,7,8-tetrahydroquinolin-5-yl]acrylamide] | – | < 100 nM | < 1000 nM | – |
| C=CC(=O)N[C@H]1CC[C@H](Oc2ccc(C(F)(F)F)cc2)c2nc(Cl)ccc21 (relative stereo) [Compound 82, trans-N-[2-Chloro-8-{4-(trifluoromethyl)phenoxy}-5,6,7,8-tetrahydroquinolin-5-yl]acrylamide] | – | < 100 nM | < 1000 nM | – |
| C=CC(=O)N[C@H]1CC[C@@H](Oc2ccc(C(F)(F)F)cc2)c2nc(C)ccc21 (relative stereo) [Compound 184, cis-N-[2-Methyl-8-{4-(trifluoromethyl)phenoxy}-5,6,7,8-tetrahydroquinolin-5-yl]acrylamide] | – | < 100 nM | < 1000 nM | – |
| C=CC(=O)NC1CCOc2c1ccc(Oc1ccc(Cl)cc1)c2C (centres unmarked) [Compound 27, N-{7-(4-Chlorophenoxy)-8-methylchroman-4-yl}acrylamide] | – | < 100 nM | < 1000 nM | – |
| C=CC(=O)NC1CCOc2c1ccc(Oc1ccc(Cl)cc1)c2OC (centres unmarked) [Compound 32, N-{7-(4-Chlorophenoxy)-8-methoxychroman-4-yl}acrylamide] | – | < 100 nM | < 1000 nM | – |
| C=CC(=O)NC1COc2cccc(Oc3ccc(C(F)(F)F)cc3)c2C1 (centres unmarked) [Compound 35, N-[5-{4-(Trifluoromethyl)phenoxy}chroman-3-yl]acrylamide] | – | < 100 nM | < 1000 nM | – |
| C=CC(=O)NC1COc2cc(Oc3ccc(Cl)cc3)ccc2C1 (centres unmarked) [Compound 37, N-{7-(4-Chlorophenoxy)chroman-3-yl}acrylamide] | – | – | < 1000 nM | – |
| C=CC(=O)NC1COc2c(Oc3ccc(Cl)cc3)ccc(C)c2C1 (centres unmarked) [Compound 41, N-{8-(4-Chlorophenoxy)-5-methylchroman-3-yl}acrylamide] | – | < 100 nM | < 1000 nM | – |
| C=CC(=O)NC1COc2c(cccc2Oc2ccc(Cl)cc2)C1 (centres unmarked) [Compound 59, N-{8-(4-chlorophenoxy)chroman-3-yl}acrylamide] | – | < 100 nM | < 1000 nM | – |

| SMILES | GI50 [1] | GI50 ([2]; group less than 100 nmol/L) | GI50 [3] | GI50 [2, 4] |
| --- | --- | --- | --- | --- |
| C=CC(=O)NC1COc2c(cccc2Oc2ccc(C(F)(F)F)cc2)C1 (centres unmarked) [Compound 61, N-[8-{4-(Trifluoromethyl)phenoxy}chroman-3-yl]acrylamide] | – | – | < 1000 nM | – |
| C=CC(=O)NC1COc2c(cccc2Oc2ccc(C(F)(F)F)cn2)C1 (centres unmarked) [Compound 64, N-(8-[{5-(Trifluoromethyl)pyridin-2-yl}oxy]chroman-3-yl)acrylamide] | – | – | < 1000 nM | – |
| C=CC(=O)Nc1cncc(Oc2ccc(C(F)(F)F)c(F)c2)c1 [Compound 106, N-[5-{3-Fluoro-4-(trifluoromethyl)phenoxy}pyridin-3-yl]acrylamide] | – | – | < 1000 nM | 100 to 1000 nM |
| C=CC(=O)Nc1cncc(Oc2ccc(C(F)(F)F)cn2)c1 [Compound 109, N-(5-[{5-(Trifluoromethyl)pyridin-2-yl}oxy]pyridin-3-yl)acrylamide] | – | < 100 nM | < 1000 nM | – |
| C=CC(=O)NC1COc2c(cccc2Oc2cnc(C(F)(F)F)cn2)C1 (centres unmarked) [Compound 157, N-(8-[{5-(Trifluoromethyl)pyrazin-2-yl}oxy]chroman-3-yl)acrylamide] | – | < 100 nM | < 1000 nM | – |
| C=CC(=O)NC1COc2c(cc(C(F)(F)F)cc2Oc2ccc(C(F)(F)F)nc2)C1 (centres unmarked) [Compound 162, N-{6-(Trifluoromethyl)-8-[{6-(trifluoromethyl)pyridin-3-yl}oxy]chroman-3-yl}acrylamide] | – | – | < 1000 nM | 100 to 1000 nM |
| C=CC(=O)NC1CCOc2c1ccc(Oc1ccc(F)cc1)c2F (centres unmarked) [Compound 167, N-{8-Fluoro-7-(4-fluorophenoxy)chroman-4-yl}acrylamide] | – | < 100 nM | – | – |
| C=CC(=O)NC1CCOc2c1ccc(Oc1ccc(C(F)(F)F)nc1)c2OCC (centres unmarked) [Compound 172, N-(8-Ethoxy-7-[{6-(trifluoromethyl)pyridin-3-yl}oxy]chroman-4-yl)acrylamide] | – | – | – | 100 to 1000 nM |
| C=CC(=O)NCc1ccc(Oc2ccc(C(F)(F)F)cc2)c2cccnc12 [Compound 216, N-([5-{4-(Trifluoromethyl)phenoxy}quinolin-8-yl]methyl)acrylamide] | – | < 100 nM | < 1000 nM | – |
| C=CC(=O)NCc1ccc(Oc2ccc(C(F)(F)F)nc2)c2cccnc12 [Compound 219, N-{(5-[{6-(Trifluoromethyl)pyridin-3-yl}oxy]quinolin-8-yl)methyl}acrylamide] | – | < 100 nM | < 1000 nM | – |
| C=CC(=O)NCc1cc(Oc2ccc(C(F)(F)F)cc2)cc2ncccc12 [Compound 220, N-([7-{4-(Trifluoromethyl)phenoxy}quinolin-5-yl]methyl)acrylamide] | – | – | < 1000 nM | 100 to 1000 nM |
| C=CC(=O)NCc1cc(Oc2ccc(C(F)(F)F)cc2)cc2cccnc12 [Compound 221, N-([6-{4-(Trifluoromethyl)phenoxy}quinolin-8-yl]methyl)acrylamide] | – | – | – | 100 to 1000 nM |
| C=CC(=O)NC1CCC(Oc2ccc(C(F)(F)F)cc2)c2cnccc21 (centres unmarked) [Compound 228, N-[8-{4-(Trifluoromethyl)phenoxy}-5,6,7,8-tetrahydroisoquinolin-5-yl]acrylamide] | – | – | < 1000 nM | – |
| C=CC(=O)NC1COc2c(cccc2Oc2ccc(C(F)(F)F)nc2)C1 (centres unmarked) [Compound 229, N-(8-[{6-(Trifluoromethyl)pyridin-3-yl}oxy]chroman-3-yl)acrylamide] | – | < 100 nM | < 1000 nM | – |
| C=CC(=O)NC1COc2c(cc(Br)cc2Oc2ccc(C(F)(F)F)nc2)C1 (centres unmarked) [Compound 231, N-(6-Bromo-8-[{6-(trifluoromethyl)pyridin-3-yl}oxy]chroman-3-yl)acrylamide] | – | < 100 nM | – | – |
| C=CC(=O)NC1CCOc2c1ccc(Oc1ccc(C(F)(F)F)cc1)c2OC (centres unmarked) [Compound 237, N-[8-Methoxy-7-{4-(trifluoromethyl)phenoxy}chroman-4-yl]acrylamide] | – | < 100 nM | – | – |
| C=CC(=O)NC1CCOc2c1ccc(Oc1ccc(C(F)(F)F)cc1)c2F (centres unmarked) [Compound 239, N-[8-Fluoro-7-{4-(trifluoromethyl)phenoxy}chroman-4-yl]acrylamide] | – | < 100 nM | – | – |
